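Protocol summary: plate cells (96-well), add compound at 5 concentrations, incubate 48 h, interpolate endpoints linearly. At the TGI there is no net growth.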
Key:
Test in all cases: NCI-60 cell line screen, 48 h
[1] = test system: 786-0 renal
[2] = test system: A498 renal
[3] = test system: A549 NSCLC
[4] = test system: ACHN renal
[5] = test system: BT-549 breast
[6] = test system: CAKI-1 renal
[7] = test system: CCRF-CEM leukemia
[8] = test system: COLO 205 colon
[9] = test system: DU-145 prostate
[10] = test system: EKVX NSCLC
[11] = test system: HCT-116 colon
[12] = test system: HCT-15 colon
[13] = test system: HL-60(TB) leukemia
[14] = test system: HOP-62 NSCLC
[15] = test system: HOP-92 NSCLC
[16] = test system: HS 578T breast
[17] = test system: HT29 colon
[18] = test system: IGROV1 ovarian
[19] = test system: K-562 leukemia
[20] = test system: KM12 colon
[21] = test system: LOX IMVI melanoma
[22] = test system: M14 melanoma
[23] = test system: MALME-3M melanoma
[24] = test system: MCF7 breast
[25] = test system: MDA-MB-231 breast
[26] = test system: MDA-MB-435
[27] = test system: MDA-N
[28] = test system: MOLT-4 leukemia
[29] = test system: NCI-H226 lung
[30] = test system: NCI-H23 lung
[31] = test system: NCI-H460 lung
[32] = test system: NCI-H522 lung
[33] = test system: NCI/ADR-RES ovarian
[34] = test system: OVCAR-3 ovarian
[35] = test system: OVCAR-4 ovarian
[36] = test system: OVCAR-5 ovarian
[37] = test system: OVCAR-8 ovarian
[38] = test system: PC-3 prostate
[39] = test system: RPMI-8226 leukemia
[40] = test system: RXF 393 renal
[41] = test system: SF-268 CNS
[42] = test system: SF-295 CNS
[43] = test system: SF-539 CNS
[44] = test system: SK-MEL-2 melanoma
[45] = test system: SK-MEL-28 melanoma
[46] = test system: SK-MEL-5 melanoma
[47] = test system: SK-OV-3 ovarian
[48] = test system: SN12C renal
[49] = test system: SNB-19 CNS
[50] = test system: SNB-75 CNS
[51] = test system: SR leukemia
[52] = test system: SW-620 colon
[53] = test system: T-47D breast
[54] = test system: TK-10 renal
[55] = test system: U251 CNS
[56] = test system: UACC-257 melanoma
[57] = test system: UACC-62 melanoma
[58] = test system: UO-31 renal
[59] = test system: HCC-2998 colon

Structure (SMILES): S=C1SCN(C2CCCCCCCCCCC2)CN1C1CCCCCCCCCCC1
- TGI [1]: > 100 µM
- TGI [2]: > 100 µM
- TGI [3]: > 100 µM
- TGI [4]: > 100 µM
- TGI [5]: > 100 µM
- TGI [6]: > 100 µM
- TGI [7]: > 100 µM
- TGI [8]: > 100 µM
- TGI [9]: > 100 µM
- TGI [10]: > 100 µM
- TGI [11]: > 100 µM
- TGI [12]: > 100 µM
- TGI [13]: > 100 µM
- TGI [14]: > 100 µM
- TGI [15]: > 100 µM
- TGI [16]: > 100 µM
- TGI [17]: > 100 µM
- TGI [18]: > 100 µM
- TGI [19]: > 100 µM
- TGI [20]: > 100 µM
- TGI [21]: > 100 µM
- TGI [22]: > 100 µM
- TGI [23]: > 100 µM
- TGI [24]: > 100 µM
- TGI [25]: > 100 µM
- TGI [26]: > 100 µM
- TGI [27]: > 100 µM
- TGI [28]: > 100 µM
- TGI [29]: > 100 µM
- TGI [30]: > 100 µM
- TGI [31]: > 100 µM
- TGI [32]: > 100 µM
- TGI [33]: > 100 µM
- TGI [34]: > 100 µM
- TGI [35]: > 100 µM
- TGI [36]: > 100 µM
- TGI [37]: > 100 µM
- TGI [38]: > 100 µM
- TGI [39]: > 100 µM
- TGI [40]: > 100 µM
- TGI [41]: > 100 µM
- TGI [42]: > 100 µM
- TGI [43]: > 100 µM
- TGI [44]: > 100 µM
- TGI [45]: > 100 µM
- TGI [46]: > 100 µM
- TGI [47]: > 100 µM
- TGI [48]: > 100 µM
- TGI [49]: > 100 µM
- TGI [50]: > 100 µM
- TGI [51]: > 100 µM
- TGI [52]: > 100 µM
- TGI [53]: > 100 µM
- TGI [54]: > 100 µM
- TGI [55]: > 100 µM
- TGI [56]: > 100 µM
- TGI [57]: > 100 µM
- TGI [58]: > 100 µM

Structure (SMILES): CC(=O)OCCCCn1cnc2c(Cl)nc(Nc3ccccc3)nc21
- TGI [1]: > 100 µM
- TGI [2]: > 100 µM
- TGI [3]: > 100 µM
- TGI [4]: > 100 µM
- TGI [5]: > 100 µM
- TGI [6]: 62 µM
- TGI [7]: > 100 µM
- TGI [8]: > 100 µM
- TGI [9]: > 100 µM
- TGI [10]: > 100 µM
- TGI [59]: > 100 µM
- TGI [11]: > 100 µM
- TGI [12]: > 100 µM
- TGI [13]: > 100 µM
- TGI [14]: > 100 µM
- TGI [16]: > 100 µM
- TGI [17]: > 100 µM
- TGI [18]: > 100 µM
- TGI [19]: > 100 µM
- TGI [20]: > 100 µM
- TGI [21]: > 100 µM
- TGI [23]: > 100 µM
- TGI [24]: > 100 µM
- TGI [25]: > 100 µM
- TGI [26]: > 100 µM
- TGI [27]: > 100 µM
- TGI [28]: > 100 µM
- TGI [29]: > 100 µM
- TGI [30]: > 100 µM
- TGI [31]: > 100 µM
- TGI [32]: 87.4 µM
- TGI [33]: > 100 µM
- TGI [34]: > 100 µM
- TGI [35]: > 100 µM
- TGI [36]: > 100 µM
- TGI [37]: > 100 µM
- TGI [38]: > 100 µM
- TGI [39]: > 100 µM
- TGI [42]: > 100 µM
- TGI [43]: > 100 µM
- TGI [45]: > 100 µM
- TGI [46]: > 100 µM
- TGI [48]: > 100 µM
- TGI [51]: > 100 µM
- TGI [52]: > 100 µM
- TGI [53]: > 100 µM
- TGI [54]: > 100 µM
- TGI [55]: > 100 µM
- TGI [56]: > 100 µM
- TGI [57]: > 100 µM
- TGI [58]: > 100 µM

Structure (SMILES): O=C(O)CNC(=O)C1NC(C(F)(F)F)(C(F)(F)F)OC1(C(F)(F)F)C(F)(F)F (configuration not stated)
- TGI [1]: > 100 µM
- TGI [2]: > 100 µM
- TGI [3]: > 100 µM
- TGI [4]: > 100 µM
- TGI [5]: > 100 µM
- TGI [6]: > 100 µM
- TGI [8]: > 100 µM
- TGI [9]: > 100 µM
- TGI [10]: > 100 µM
- TGI [11]: > 100 µM
- TGI [12]: > 100 µM
- TGI [13]: > 100 µM
- TGI [14]: > 100 µM
- TGI [15]: > 100 µM
- TGI [16]: > 100 µM
- TGI [17]: > 100 µM
- TGI [18]: > 100 µM
- TGI [19]: > 100 µM
- TGI [20]: > 100 µM
- TGI [21]: > 100 µM
- TGI [22]: > 100 µM
- TGI [23]: > 100 µM
- TGI [24]: > 100 µM
- TGI [25]: > 100 µM
- TGI [26]: > 100 µM
- TGI [27]: > 100 µM
- TGI [28]: > 100 µM
- TGI [29]: > 100 µM
- TGI [30]: > 100 µM
- TGI [31]: > 100 µM
- TGI [32]: > 100 µM
- TGI [33]: > 100 µM
- TGI [34]: > 100 µM
- TGI [35]: > 100 µM
- TGI [36]: > 100 µM
- TGI [37]: > 100 µM
- TGI [38]: > 100 µM
- TGI [39]: > 100 µM
- TGI [40]: > 100 µM
- TGI [41]: > 100 µM
- TGI [42]: > 100 µM
- TGI [43]: > 100 µM
- TGI [44]: > 100 µM
- TGI [45]: > 100 µM
- TGI [46]: > 100 µM
- TGI [47]: > 100 µM
- TGI [48]: > 100 µM
- TGI [49]: > 100 µM
- TGI [50]: > 100 µM
- TGI [51]: > 100 µM
- TGI [52]: > 100 µM
- TGI [53]: > 100 µM
- TGI [54]: > 100 µM
- TGI [55]: > 100 µM
- TGI [56]: > 100 µM
- TGI [57]: > 100 µM
- TGI [58]: > 100 µM

Structure (SMILES): O=C1c2cc([N+](=O)[O-])sc2C(=O)c2cc([N+](=O)[O-])sc21
- TGI [1]: 6.78 µM
- TGI [2]: 32.7 µM
- TGI [3]: 49.6 µM
- TGI [4]: 10.1 µM
- TGI [5]: 3.95 µM
- TGI [6]: 8.81 µM
- TGI [7]: > 19.8 µM
- TGI [8]: 6.1 µM
- TGI [9]: 23.9 µM
- TGI [10]: 7.78 µM
- TGI [59]: 8.56 µM
- TGI [11]: 3.24 µM
- TGI [12]: 3.55 µM
- TGI [14]: 15.3 µM
- TGI [15]: 4.04 µM
- TGI [16]: 35 µM
- TGI [17]: 11.5 µM
- TGI [18]: 3.07 µM
- TGI [20]: 14.8 µM
- TGI [21]: 3.68 µM
- TGI [22]: 9.25 µM
- TGI [23]: 2.38 µM
- TGI [24]: 9.92 µM
- TGI [25]: 5.66 µM
- TGI [26]: 4.73 µM
- TGI [27]: 4.72 µM
- TGI [28]: > 22.7 µM
- TGI [29]: 26.3 µM
- TGI [30]: 15.5 µM
- TGI [31]: 43.8 µM
- TGI [32]: 3.02 µM
- TGI [33]: 11.3 µM
- TGI [34]: 6.65 µM
- TGI [35]: 8.71 µM
- TGI [36]: 15.5 µM
- TGI [37]: 18.6 µM
- TGI [38]: 15.9 µM
- TGI [40]: 15.5 µM
- TGI [41]: 10 µM
- TGI [42]: 23.9 µM
- TGI [43]: 8.51 µM
- TGI [44]: 21.4 µM
- TGI [45]: 8.3 µM
- TGI [46]: 7.21 µM
- TGI [47]: 25.2 µM
- TGI [48]: 7.12 µM
- TGI [49]: 8.9 µM
- TGI [50]: 26.3 µM
- TGI [51]: 6 µM
- TGI [52]: 3.37 µM
- TGI [53]: 10.8 µM
- TGI [54]: 13 µM
- TGI [55]: 3.38 µM
- TGI [56]: 11.8 µM
- TGI [57]: 3.8 µM
- TGI [58]: 7.68 µM

Reference: PubChem BioAssay (NCI)
